# Where two headings read alike, the source gives them in different places.
# Assays:
# [1] = Plasma AT2220 (1-deoxynojirimycin hydrochloride) pharmacokinetics by LC-MS/MS in Pompe patients; assay type: in vivo, human; details: for Cmax / Tmax / half-life / AUC(0-t) / AUC(0-inf): human, plasma
# Procedure: Blood samples for pharmacokinetic analysis will be collected before dosing 1-deoxynojirimycin hydrochloride and at 1 hour after administration of 1-deoxynojirimycin hydrochloride (i.e., immediately before initiation of the alglucosidase alfa infusion) and over the 24-hour period after initiation of the alglucosidase alfa infusion. Plasma and WBC GAA enzyme activity, plasma 1-deoxynojirimycin hydrochloride concentrations and plasma anti-rhGAA antibody titer will be determined from the collected blood samples at the times summarized in Table 2. A 12-lead ECG will be performed at the end of the alglucosidase alfa infusion, immediately after collection of the post-infusion blood sample.
# Concentrations of 1-deoxynojirimycin hydrochloride in blood samples will be measured in plasma using a validated LC-MS/MS assay. GAA activity in plasma will be determined by a validated assay measuring enzyme activity using 4-MUG, with and without Con A. GAA protein levels will be measured by Western blotting using anti-human GAA antibody.
# Non-compartmental pharmacokinetic parameters of AUC0-t, AUCinfinity, Cmax, tmax, kel and half-life will be calculated from plasma 1-deoxynojirimycin hydrochloride concentrations and plasma rhGAA enzyme levels. Pharmacokinetic parameters will be summarized by treatment using descriptive statistics. The AUC0-t, AUCinfinity ratios for GAA enzyme activity alone or after administration with 1-deoxynojirimycin hydrochloride will be calculated. Pharmacokinetic and pharmacodynamic data for those subjects receiving Myozyme® and Lumizyme® will be analyzed separately.
# [2] = AT2220 concentration in muscle biopsies by LC-MS/MS in Pompe patients; assay type: in vivo, human; details: for muscle concentrations from Day 3 or Day 7 biopsies: 50 mg and 100 mg, lower limit of quantitation 8 ng/g; for concentration at 7 day / concentration at 3 day: human, muscle, oral, read-out: Muscle AT2220 Conc
# Text: GAA enzyme activity will be examined in muscle biopsy samples. One piece of muscle tissue will be removed as described in Table 1. GAA activity in muscle will be determined by a validated assay measuring enzyme activity using 4-MUG, with and without Con A. GAA protein levels will be measured by Western blotting using anti-human GAA antibody. 1-deoxynojirimycin hydrochloride concentrations in muscle samples collected in Period 2 will be determined using a validated LC-MS/MS assay.
structure (smiles),measurement,setting,value
"OC[C@H]1NC[C@H](O)[C@@H](O)[C@@H]1O [AT2220, (2R,3R,4R,5S)-2-hydroxymethyl-piperidine-3,4,5-triol]",Cmax,"[1]; oral, 250 mg, Cohort 3, 250 mg AT2220, Mean, N=6, read-out: Plasma AT2220 Cmax",3.29 µg/mL
same,Tmax,"[1]; oral, 250 mg, Cohort 3, 250 mg AT2220, Mean, N=6, read-out: Plasma AT2220 Tmax",2.3 h
same,half-life,"[1]; oral, 250 mg, Cohort 3, 250 mg AT2220, Mean, N=6, read-out: Plasma AT2220 T½ (converted)",3.7 h
same,AUC(0-t),"[1]; oral, 250 mg, Cohort 3, 250 mg AT2220, Median, N=6, read-out: Plasma AT2220 AUC0-T",20.8 µg·h/mL
same,AUC(0-inf),"[1]; oral, 250 mg, Cohort 3, 250 mg AT2220, Median, N=6, read-out: Plasma AT2220 AUC0-∞",20.9 µg·h/mL
same,Cmax,"[1]; oral, 250 mg, Cohort 3, 250 mg AT2220, Median, N=6, read-out: Plasma AT2220 Cmax",3.18 µg/mL
same,Tmax,"[1]; oral, 250 mg, Cohort 3, 250 mg AT2220, Median, N=6, read-out: Plasma AT2220 Tmax",2 h
same,half-life,"[1]; oral, 250 mg, Cohort 3, 250 mg AT2220, Median, N=6, read-out: Plasma AT2220 T½ (converted)",3.6 h
same,AUC(0-t),"[1]; oral, 250 mg, Cohort 3, 250 mg AT2220, individual subjects, read-out: Plasma AT2220 AUC0-T",18.7 µg·h/mL
same,AUC(0-inf),"[1]; oral, 250 mg, Cohort 3, 250 mg AT2220, individual subjects, read-out: Plasma AT2220 AUC0-∞",19.3 µg·h/mL
same,Tmax,"[1]; oral, 250 mg, Cohort 3, 250 mg AT2220, individual subjects, read-out: Plasma AT2220 Tmax",3 h
same,half-life,"[1]; oral, 250 mg, Cohort 3, 250 mg AT2220, individual subjects, read-out: Plasma AT2220 T½ (converted)",4.6 h
same,half-life,"[1]; po, 50 mg, 50 mg single oral dose (N=4), arithmetic mean (SD), read-out: t½, plasma AT2220 (converted)",3.1 h
same,AUC(0-t),"[1]; po, 50 mg, 50 mg single oral dose (N=4), geometric mean (CV %), read-out: AUC0-T, plasma AT2220",6.97 µg·h/mL
same,AUC(0-inf),"[1]; po, 50 mg, 50 mg single oral dose (N=4), geometric mean (CV %), read-out: AUC0-∞, plasma AT2220",7.01 µg·h/mL
same,Tmax,"[1]; po, 50 mg, 50 mg single oral dose (N=4), median (range), read-out: Tmax, plasma AT2220",2 h
same,Cmax,"[1]; po, 50 mg, 50 mg single oral dose (N=4, Cohort 1), geometric mean (CV %), read-out: Cmax, plasma AT2220",1.03 µg/mL
same,half-life,"[1]; po, 100 mg, 100 mg single oral dose (N=6), arithmetic mean (SD), read-out: t½, plasma AT2220 (converted)",3.4 h
same,AUC(0-t),"[1]; po, 100 mg, 100 mg single oral dose (N=6), geometric mean (CV %), read-out: AUC0-T, plasma AT2220",13 µg·h/mL
same,AUC(0-inf),"[1]; po, 100 mg, 100 mg single oral dose (N=6), geometric mean (CV %), read-out: AUC0-∞, plasma AT2220",13.1 µg·h/mL
same,Tmax,"[1]; po, 100 mg, 100 mg single oral dose (N=6), median (range), read-out: Tmax, plasma AT2220",3 h
same,Cmax,"[1]; po, 100 mg, 100 mg single oral dose (N=6, Cohort 2), geometric mean (CV %), read-out: Cmax, plasma AT2220",1.86 µg/mL
same,"increase in mean AUC, plasma AT2220",[1]; to 250 mg,3.2 fold
same,"increase in mean Cmax, plasma AT2220",[1]; to 250 mg,3.0 fold
same,muscle concentrations from Day 3 or Day 7 biopsies,[2],either below or near the lower limit of quantitation
same,muscle concentrations from Day 3 or Day 7 biopsies,[2]; listed as 1-DNJ-HCl,either below or just above the lower limit of quantification
same,Muscle AT2220 Conc,"[2]; Cohort 2, 100 mg AT2220, Period 2, biopsy Day 3, individual subjects, LLOQ = 8.0 ng/g (16.0 or […] for diluted samples)",BLQ^c
same,muscle AT2220 concentrations,"[2]; Cohort 3 (250 mg) vs lower doses, preliminary",Dose-related increases
same,subjects with a quantifiable AT2220 concentration in muscle,"[2]; Cohort 3 (250 mg), biopsies 3 or 7 days post dose, preliminary",4 of 6
same,Muscle AT2220 Conc,"[2]; Cohort 3, 250 mg AT2220, Period 2, biopsy Day 7, individual subjects, LLOQ = 8.0 ng/g (16.0 or […] for diluted samples)",27.9 ng/g
same,Muscle AT2220 Conc,"[2]; Patient D, 50 mg, Period 2, Day 7, LLOQ = 8.0 ng/g",BLQ
same,Muscle AT2220 Conc,"[2]; Patient F, 100 mg, Period 2, Day 7, sample diluted 2-fold, LLOQ = […]",BLQ^b
same,Muscle AT2220 Conc,"[2]; Patient G, 100 mg, Period 2, Day 7, LLOQ = 8.0 ng/g",BLQ
same,Muscle AT2220 Conc,"[2]; Patient H, 100 mg, Period 2, Day 3, sample diluted 2-fold, LLOQ = […]",BLQ^b
same,Muscle AT2220 Conc,"[2]; Patient I, 100 mg, Period 2, Day 7, sample diluted 2-fold, LLOQ = […]",BLQ^b
same,Muscle AT2220 Conc,"[2]; Patient J, 100 mg, Period 2, Day 3, sample diluted 3-fold, LLOQ = […]",BLQ^c
same,clearance from muscle,"[2]; all four cohorts, Day 7",cleared from muscle to near-undetectable levels by Day 7
same,concentration at 7 day,"[2]; 50 mg, Cohort 1, 50 mg AT2220, Period 2, biopsy Day 7, individual subjects, LLOQ = 8.0 ng/g (16.0 or […] for diluted samples)",13.1 ng/g
same,concentration at 7 day,"[2]; 50 mg, Patient A, 50 mg, Period 2, Day 7, LLOQ = 8.0 ng/g",11.8 ng/g
same,concentration at 7 day,"[2]; 50 mg, Patient B, 50 mg, Period 2, Day 7, LLOQ = 8.0 ng/g",10 ng/g
same,concentration at 7 day,"[2]; 50 mg, Patient C, 50 mg, Period 2, Day 7, LLOQ = 8.0 ng/g",13.1 ng/g
same,concentration at 3 day,"[2]; 100 mg, Cohort 2, 100 mg AT2220, Period 2, biopsy Day 3, individual subjects, LLOQ = 8.0 ng/g (16.0 or […] for diluted samples)",17.8 ng/g
same,concentration at 3 day,"[2]; 100 mg, Patient E, 100 mg, Period 2, Day 3, LLOQ = 8.0 ng/g",17.8 ng/g
same,concentration at 3 day,"[2]; 250 mg, Cohort 3, 250 mg AT2220, Period 2, biopsy Day 3, individual subjects, LLOQ = 8.0 ng/g (16.0 or […] for diluted samples)",54.4 ng/g
same,concentration at 7 day,"[2]; 250 mg, Cohort 3, 250 mg AT2220, Period 2, biopsy Day 7, individual subjects, LLOQ = 8.0 ng/g (16.0 or […] for diluted samples)",28.1 ng/g

# Source: patent US20150086530A1, “DOSING REGIMENS FOR THE TREATMENT OF POMPE DISEASE” (Amicus Therapeutics, Inc., priority 2012, published 2015)
